Read-outs that look alike come from different tables or passages of the source.
Target: T1, human apelin receptor (APJ, AGTRL-1, APLNR) (Homo sapiens, UniProt P35414)
T1 construct: host or cells: Chinese hamster ovary cells
T1 sequence (P35414 1-380): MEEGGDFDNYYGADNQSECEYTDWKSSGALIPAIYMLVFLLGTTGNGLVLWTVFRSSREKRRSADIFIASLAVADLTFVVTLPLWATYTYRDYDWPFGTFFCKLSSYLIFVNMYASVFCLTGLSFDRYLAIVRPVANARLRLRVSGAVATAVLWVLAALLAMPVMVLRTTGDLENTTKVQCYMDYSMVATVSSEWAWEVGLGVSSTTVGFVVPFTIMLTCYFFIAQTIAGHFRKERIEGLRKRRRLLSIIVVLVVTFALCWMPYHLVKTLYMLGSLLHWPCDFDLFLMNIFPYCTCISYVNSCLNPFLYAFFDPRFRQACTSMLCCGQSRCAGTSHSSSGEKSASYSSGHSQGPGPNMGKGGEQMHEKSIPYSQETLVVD
Assay: APJ cAMP cell-based assay (forskolin-stimulated CHO cells, enzyme fragment complementation)
Conditions: for Emax: CHO, 0.5 h, read-out: APJ cAMP % resp (efficacy)
Description: The assays disclosed herein were performed using cell lines from DiscoveRx, Inc.
Biological activity was determined in a cell-based assay. This assay detects activation of the receptor by reporting on intracellular cyclic adenosine monophosphate (cAMP) level. Chinese hamster ovary cells engineered to express a stably integrated human apelin receptor (APJ, AGTRL-1, APLNR), were plated into the wells of a microtiter plate. Cells were stimulated with forskolin to increase intracellular cAMP. Immediately following, compounds were added at a range of final concentrations 0.0-100 μM, in DMSO (not to exceed a final DMSO concentration of >1% v/v), and allowed to incubate with the cells for 0.5 h. At the end of the incubation, cells were lysed to stop APJ signaling, and cAMP was quantified using a commercially available assay kit that applies enzyme fragment complementation technology and bioluminescence, in a competitive ELISA format.
Compound efficacy (% resp) is reported as a percentage of the maximal apelin-13 response at 1 nM (control).

[1] = CHO cells expressing human APJ, forskolin-stimulated, 0.5 h incubation, 50% of control (apelin-13, 1 nM) response, read-out: APJ cAMP EC50
[2] = percentage of the maximal apelin-13 response at 1 nM (control)

Compound	EC50 [µM]	Emax [%]	EC50 [1] [µM]	Emax [2] [%]
COc1ccccc1-n1c(SCc2nc(=O)c3ccccc3[nH]2)nnc1-c1cccs1 [Example 52, 2-[4-(2-Methoxy-phenyl)-5-thiophen-2-yl-4H-[1,2,4]triazol-3-ylsulfanylmethyl]-1H-quinazolin-4-one]	0.24	113		
COc1ccccc1-n1c(SCc2nc3cc(C)ccc3c(=O)[nH]2)nnc1-c1cccs1 [Example 53, 2-(((4-(2-methoxyphenyl)-5-(thiophen-2-yl)-4H-1,2,4-triazol-3-yl)thio)methyl)-7-methylquinazolin-4(3H)-one]			1.03	59
COc1ccccc1-n1c(SCc2nc(=O)c3cc(C#N)ccc3[nH]2)nnc1-c1cccs1 [Example 54, 2-[4-(2-Methoxy-phenyl)-5-thiophen-2-yl-4H-[1,2,4]triazol-3-ylsulfanylmethyl]-4-oxo-1,4-dihydro-quinazoline-6-carbonitrile]			0.0313	118
COc1ccccc1-n1c(SCc2nc(=O)c3cc(F)ccc3[nH]2)nnc1-c1cccs1 [Example 55, 6-Fluoro-2-[4-(2-methoxy-phenyl)-5-thiophen-2-yl-4H-[1,2,4]triazol-3-ylsulfanylmethyl]-1H-quinazolin-4-one]			0.009	109
COc1ccccc1-n1c(SCc2nc(=O)c3c(F)cccc3[nH]2)nnc1-c1cccs1 [Example 56, 5-Fluoro-2-[4-(2-methoxy-phenyl)-5-thiophen-2-yl-4H-[1,2,4]triazol-3-ylsulfanylmethyl]-1H-quinazolin-4-one]			8.62	107
COc1ccccc1-n1c(SCc2nc(=O)c3cccc(F)c3[nH]2)nnc1-c1cccs1 [Example 57, 8-Fluoro-2-[4-(2-methoxy-phenyl)-5-thiophen-2-yl-4H-[1,2,4]triazol-3-ylsulfanylmethyl]-1H-quinazolin-4-one]		106	0.14	
COc1ccccc1-n1c(SCc2nc(=O)c3cccc(C)c3[nH]2)nnc1-c1cccs1 [Example 58, 2-[4-(2-Methoxy-phenyl)-5-thiophen-2-yl-4H-[1,2,4]triazol-3-ylsulfanylmethyl]-8-methyl-1H-quinazolin-4-one]			0.547	134
COc1ccccc1-n1c(SCc2nc(=O)c3cc(C)ccc3[nH]2)nnc1-c1cccs1 [Example 59, 2-[4-(2-Methoxy-phenyl)-5-thiophen-2-yl-4H-[1,2,4]triazol-3-ylsulfanylmethyl]-6-methyl-1H-quinazolin-4-one]			0.042	121
COc1ccccc1-n1c(SCc2nc(=O)c3ccc(C(F)(F)F)cc3[nH]2)nnc1-c1cccs1 [Example 60, 2-[4-(2-Methoxy-phenyl)-5-thiophen-2-yl-4H-[1,2,4]triazol-3-ylsulfanylmethyl]-7-trifluoromethyl-1H-quinazolin-4-one]			0.569	160
COc1ccccc1-n1c(SCc2nc(=O)c3cc(Br)ccc3[nH]2)nnc1-c1cccs1 [Example 61, 6-Bromo-2-[4-(2-methoxy-phenyl)-5-thiophen-2-yl-4H-[1,2,4]triazol-3-ylsulfanylmethyl]-1H-quinazolin-4-one]			0.0315	80
COc1ccccc1-n1c(SCc2nc(=O)c3cc(Cl)ccc3[nH]2)nnc1-c1cccs1 [Example 62, 6-Chloro-2-[4-(2-methoxy-phenyl)-5-thiophen-2-yl-4H-[1,2,4]triazol-3-ylsulfanylmethyl]-1H-quinazolin-4-one]			0.0536	116
COc1ccccc1-n1c(SCc2nc(=O)c3ccc(F)cc3[nH]2)nnc1-c1cccs1 [Example 63, 7-Fluoro-2-[4-(2-methoxy-phenyl)-5-thiophen-2-yl-4H-[1,2,4]triazol-3-ylsulfanylmethyl]-1H-quinazolin-4-one]			0.125	108
COc1ccccc1-n1c(SCc2nc(=O)c3cc(C(F)(F)F)ccc3[nH]2)nnc1-c1cccs1 [Example 64, 2-[4-(2-Methoxy-phenyl)-5-thiophen-2-yl-4H-[1,2,4]triazol-3-ylsulfanylmethyl]-6-trifluoromethyl-1H-quinazolin-4-one]			0.365	92
COc1ccc2[nH]c(CSc3nnc(-c4cccs4)n3-c3ccccc3OC)nc(=O)c2c1 [Example 65, 6-Methoxy-2-[4-(2-methoxy-phenyl)-5-thiophen-2-yl-4H-[1,2,4]triazol-3-ylsulfanylmethyl]-1H-quinazolin-4-one]			0.304	101
COc1ccccc1-n1c(SCc2nc(=O)c3ccc(Cl)cc3[nH]2)nnc1-c1cccs1 [Example 66, 7-Chloro-2-[4-(2-methoxy-phenyl)-5-thiophen-2-yl-4H-[1,2,4]triazol-3-ylsulfanylmethyl]-1H-quinazolin-4-one]			0.482	87
COc1ccccc1-n1c(SCc2ccc3ccccc3n2)nnc1-c1cccs1 [Example 68, 2-[4-(2-Methoxy-phenyl)-5-thiophen-2-yl-4H-[1,2,4]triazol-3-ylsulfanylmethyl]-quinoline]			0.211	79
COc1ccccc1-n1c(SCc2nc(=O)c3cc(OC(F)(F)F)ccc3[nH]2)nnc1-c1cccs1 [Example 69, 2-[4-(2-Methoxy-phenyl)-5-thiophen-2-yl-4H-[1,2,4]triazol-3-ylsulfanylmethyl]-6-trifluoromethoxy-1H-quinazolin-4-one]		59	1.37	
COc1ccccc1-n1c(SCc2ccc(Cl)cc2)nnc1-c1cccs1 [Example 70, 3-(4-Chloro-benzylsulfanyl)-4-(2-methoxy-phenyl)-5-thiophen-2-yl-4H-[1,2,4]triazole]			2.03	134
COc1ccccc1-n1c(SCc2ccc(Cl)c(Cl)c2)nnc1-c1cccs1 [Example 71, 3-(3,4-Dichloro-benzylsulfanyl)-4-(2-methoxy-phenyl)-5-thiophen-2-yl-4H-[1,2,4]triazole]			1.22	99
COc1ccccc1-n1c(SCc2ccc([N+](=O)[O-])cc2)nnc1-c1cccs1 [Example 72, 4-(2-Methoxy-phenyl)-3-(4-nitro-benzylsulfanyl)-5-thiophen-2-yl-4H-[1,2,4]triazole]			0.14	106
COc1ccccc1-n1c(SCc2cccc(F)c2)nnc1-c1cccs1 [Example 73, 3-(3-Fluoro-benzylsulfanyl)-4-(2-methoxy-phenyl)-5-thiophen-2-yl-4H-[1,2,4]triazole]			10.2	166
COc1ccccc1-n1c(SCc2ccccc2F)nnc1-c1cccs1 [Example 74, 3-(2-Fluoro-benzylsulfanyl)-4-(2-methoxy-phenyl)-5-thiophen-2-yl-4H-[1,2,4]triazole]			15	80
COc1ccccc1-n1c(SCc2ccc(C)cc2)nnc1-c1cccs1 [Example 75, 4-(2-Methoxy-phenyl)-3-(4-methyl-benzylsulfanyl)-5-thiophen-2-yl-4H-[1,2,4]triazole]			2.74	70
COc1ccccc1-n1c(SCc2cccc(C)c2)nnc1-c1cccs1 [Example 76, 4-(2-Methoxy-phenyl)-3-(3-methyl-benzylsulfanyl)-5-thiophen-2-yl-4H-[1,2,4]triazole]			11.3	159
COc1ccccc1-n1c(SCc2cc(F)cc(F)c2)nnc1-c1cccs1 [Example 77, 3-(3,5-Difluoro-benzylsulfanyl)-4-(2-methoxy-phenyl)-5-thiophen-2-yl-4H-[1,2,4]triazole]			8.44	111
COc1ccccc1-n1c(SCc2ccncn2)nnc1-c1cccs1 [Example 78, 4-[4-(2-Methoxy-phenyl)-5-thiophen-2-yl-4H-[1,2,4]triazol-3-ylsulfanylmethyl]-pyrimidine]	> 10	50		
COc1ccccc1-n1c(-c2cccs2)cnc1SCc1cc(=O)n2cc(C)ccc2n1 [Example 79, 2-[1-(2-Methoxy-phenyl)-5-thiophen-2-yl-1H-imidazol-2-ylsulfanylmethyl]-7-methyl-pyrido[1,2-a]pyrimidin-4-one]		54	1.92	
COc1ccccc1-n1c(-c2cccs2)cnc1OCc1csc(-c2ccccc2)n1 [Example 80]			> 10	31
COc1ccccc1-n1c(OCc2coc(-c3ccccc3)n2)nnc1-c1cccs1 [Example 81, 4-(2-Methoxy-phenyl)-3-(2-phenyl-oxazol-4-ylmethoxy)-5-thiophen-2-yl-4H-[1,2,4]triazole]			0.238	101
COc1ccccc1-n1c(OCc2ccccc2)nnc1-c1cccs1 [Example 82, 3-(benzyloxy)-4-(2-methoxyphenyl)-5-(thiophen-2-yl)-4H-1,2,4-triazole]			> 10	52
